# Reference: patent US10092551B2, “Spiro-thiazolones” (Hoffmann-La Roche Inc., priority 2014, dated 2018)
# Molecular target: human V1a receptor (Homo sapiens (Human), UniProt P37288)
# Assay: human V1a receptor binding studies (3H-Vasopressin, SPA beads)
# Details: membranes of HEK293 cells transiently transfected with human V1a receptor, Ki by Cheng-Prussoff
# Protocol: The human V1a receptor was cloned by RT-PCR from total human liver RNA. The coding sequence was subcloned in an expression vector after sequencing to confirm the identity of the amplified sequence. […] Cell membranes were prepared from HEK293 cells transiently transfected with the expression vector and grown in 20 liter fermenters with the following protocol.
# 50 g of cells are re-suspended in 30 ml freshly prepared ice cold Lysis buffer (50 mM HEPES, 1 mM EDTA, 10 mM MgCl2 adjusted to pH=7.4+complete cocktail of protease inhibitor (Roche Diagnostics)). Homogenized with Polytron for 1 min and sonicated on ice for 2×2 minutes at 80% intensity (Vibracell sonicator). The preparation is centrifuged 20 min at 500 g at 4° C., the pellet is discarded and the supernatant centrifuged 1 hour at 43,000 g at 4° C. (19,000 rpm). The pellet is re-suspended in 12.5 ml Lysis buffer+12.5 ml Sucrose 20% and homogenized using a Polytron for 1-2 min. The protein concentration is determined by the Bradford method and aliquots are stored at −80° C. until use. For binding studies 60 mg Yttrium silicate SPA beads (Amersham) are mixed with an aliquot of membrane in binding buffer (50 mM Tris, 120 mM NaCl, 5 mM KCl, 2 mM CaCl2, 10 mM MgCl2) for 15 minutes with mixing. 50 μl of bead/membrane mixture is then added to each well of a 96 well plate, followed by 50 μl of 4 nM 3H-Vasopressin (American Radiolabeled Chemicals). For total binding measurement 100 μl of binding buffer are added to the respective wells, for non-specific binding 100 μl of 8.4 mM cold vasopressin and for compound testing 100 μl of a serial dilution of each compound in 2% DMSO. The plate is incubated 1 h at room temperature, centrifuged 1 min at 1000 g and counted on a Packard Top-Count. Non-specific binding counts are subtracted from each well and data is normalized to the maximum specific binding set at 100%. To calculate an IC 50 the curve is fitted using a non-linear regression model (XLfit) and the Ki is calculated using the Cheng-Prussoff equation.
# Sequence of human V1a receptor (P37288 whole entry): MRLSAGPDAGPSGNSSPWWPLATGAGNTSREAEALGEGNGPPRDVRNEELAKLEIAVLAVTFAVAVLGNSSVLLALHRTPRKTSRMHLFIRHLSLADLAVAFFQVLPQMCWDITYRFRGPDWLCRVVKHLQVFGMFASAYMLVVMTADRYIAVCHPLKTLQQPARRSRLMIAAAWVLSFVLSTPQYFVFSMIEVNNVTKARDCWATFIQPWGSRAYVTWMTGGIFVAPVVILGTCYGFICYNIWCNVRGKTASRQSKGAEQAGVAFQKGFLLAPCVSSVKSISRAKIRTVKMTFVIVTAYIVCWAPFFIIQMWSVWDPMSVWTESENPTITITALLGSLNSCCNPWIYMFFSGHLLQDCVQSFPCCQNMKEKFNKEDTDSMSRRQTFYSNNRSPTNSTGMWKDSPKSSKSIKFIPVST
row,pKi hV1a,SMILES
1,7.8,"O=C1N=C(N2CCC3(CC2)OCc2ccccc23)S/C1=C1/CCCOC1 [Example 76, (5E/Z)-5-(dihydro-2H-pyran-3(4H)-ylidene)-2-(1′H,3H-spiro[2-benzofuran-1,4′-piperidin]-1′-yl)-1,3-thiazol-4(5H)-one]"
2,7.8,"CC(C)/C(=C1\SC(N2CCC3(CC2)OCc2ccccc23)=NC1=O)c1ccc(Cl)nc1 [Example 132, (5E)-5-[1-(6-chloropyridin-3-yl)-2-methylpropylidene]-2-(1′H,3H-spiro[2-benzofuran-1,4′-piperidin]-1′-yl)-1,3-thiazol-4(5H)-one]"
3,7.9,"C/C(=C1/SC(N2CCC3(CC2)OCc2ncccc23)=NC1=O)c1ccc(Cl)nc1 [Example 162, (5E/Z)-5-[1-(6-chloropyridin-3-yl)ethylidene]-2-(1′H,7H-spiro[furo[3,4-b]pyridine-5,4′-piperidin]-1′-yl)-1,3-thiazol-4(5H)-one]"
4,8.9,"CCCC(CCC)=C1SC(N2CCC3(CC2)OCc2ccccc23)=NC1=O [Example 114, 5-(heptan-4-ylidene)-2-(1′H,3H-spiro[2-benzofuran-1,4′-piperidin]-1′-yl)-1,3-thiazol-4(5H)-one]"
5,9.1,"C/C(=C1/SC(N2CCC3(CC2)OCc2ccccc23)=NC1=O)c1cccn1C [Example 37, (5Z)-5-[1-(1-methyl-1H-pyrrol-2-yl)ethylidene]-2-(1′H,3H-spiro[2-benzofuran-1,4′-piperidin]-1′-yl)-1,3-thiazol-4(5H)-one]"
6,9.0,"CC/C(=C1/SC(N2CCC3(CC2)OC(=O)c2ccccc23)=NC1=O)c1ccc(Cl)nc1 [Example 150, 1′-{(5Z)-5-[1-(6-chloropyridin-3-yl)propylidene]-4-oxo-4,5-dihydro-1,3-thiazol-2-yl}-3H-spiro[2-benzofuran-1,4′-piperidin]-3-one]"
7,8.8,"COCC(COC)=C1SC(N2CCC3(CC2)OCc2ccccc23)=NC1=O [Example 15, 5-(1,3-dimethoxypropan-2-ylidene)-2-(1′H,3H-spiro[2-benzofuran-1,4′-piperidin]-1′-yl)-1,3-thiazol-4(5H)-one]"
8,8.3,"C/C(=C1/SC(N2CCC3(CC2)OCc2ccccc23)=NC1=O)c1ccncc1 [Example 33, (5Z)-5-[1-(pyridin-4-yl)ethylidene]-2-(1′H,3H-spiro[2-benzofuran-1,4′-piperidin]-1′-yl)-1,3-thiazol-4(5H)-one]"
9,7.9,"C/C(CF)=C1/SC(N2CCC3(CC2)OCc2ccccc23)=NC1=O [Example 51, (5E/Z)-5-(1-fluoropropan-2-ylidene)-2-(1′H,3H-spiro[2-benzofuran-1,4′-piperidin]-1′-yl)-1,3-thiazol-4(5H)-one]"
10,9.1,"C/C(=C1/SC(N2CCC3(CC2)OCc2ccccc23)=NC1=O)c1cccnc1F [Example 61, (5Z)-5-[1-(2-fluoropyridin-3-yl)ethylidene]-2-(1′H,3H-spiro[2-benzofuran-1,4′-piperidin]-1′-yl)-1,3-thiazol-4(5H)-one]"
11,8.4,"C/C(=C1/SC(N2CCC3(CC2)OCc2ccccc23)=NC1=O)c1ccncc1F [Example 158, (5Z)-5-[1-(3-fluoropyridin-4-yl)ethylidene]-2-(1′H,3H-spiro[2-benzofuran-1,4′-piperidin]-1′-yl)-1,3-thiazol-4(5H)-one]"
12,6.7,"CC(C)(C)OC(=O)N1CCC/C(=C2/SC(N3CCC4(CC3)OCc3ccccc34)=NC2=O)C1 [Example 88, tert-butyl (3E/Z)-3-[4-oxo-2-(1′H,3H-spiro[2-benzofuran-1,4′-piperidin]-1′-yl)-1,3-thiazol-5(4H)-ylidene]piperidine-1-carboxylate]"
13,9.2,"C/C(=C1/SC(N2CCC3(CC2)OCc2ccccc23)=NC1=O)c1ccc[nH]1 [Example 34, (5E/Z)-5-[1-(1H-pyrrol-2-yl)ethylidene]-2-(1′H,3H-spiro[2-benzofuran-1,4′-piperidin]-1′-yl)-1,3-thiazol-4(5H)-one]"
14,6.6,"C/C(CN)=C1\SC(N2CCC3(CC2)OCc2ccccc23)=NC1=O.Cl [Example 66, (5E)-5-(1-aminopropan-2-ylidene)-2-(1′H,3H-spiro[2-benzofuran-1,4′-piperidin]-1′-yl)-1,3-thiazol-4(5H)-one hydrochloride (1:1)]"
15,8.0,"O=C1N=C(N2CCC3(CC2)OC(=O)c2ccccc23)S/C1=C(/CO)c1ccc(Cl)nc1 [Example 145, 1′-{(5E)-5-[1-(6-chloropyridin-3-yl)-2-hydroxyethylidene]-4-oxo-4,5-dihydro-1,3-thiazol-2-yl}-3H-spiro[2-benzofuran-1,4′-piperidin]-3-one]"
16,8.2,"O=C1N=C(N2CCC3(CC2)OCc2ccccc23)SC1=C1c2ccccc2-c2ccccc21 [Example 104, 5-(9H-fluoren-9-ylidene)-2-(1′H,3H-spiro[2-benzofuran-1,4′-piperidin]-1′-yl)-1,3-thiazol-4(5H)-one]"
17,8.8,"C/C(=C1/SC(N2CCC3(CC2)OCc2ccccc23)=NC1=O)c1cccnc1Cl [Example 83, (5Z)-5-[1-(2-chloropyridin-3-yl)ethylidene]-2-(1′H,3H-spiro[2-benzofuran-1,4′-piperidin]-1′-yl)-1,3-thiazol-4(5H)-one]"
18,8.5,"O=C1N=C(N2CCC3(CC2)OC(=O)c2ccccc23)SC1=C(C1CC1)C1CC1 [Example 139, 1′-[5-(dicyclopropylmethylidene)-4-oxo-4,5-dihydro-1,3-thiazol-2-yl]-3H-spiro[2-benzofuran-1,4′-piperidin]-3-one]"
19,8.4,"O=C1N=C(N2CCC3(CC2)OCc2ccccc23)SC1=C1c2ccccc2C=Cc2ccccc21 [Example 99, 5-(5H-dibenzo[a,d][7]annulen-5-ylidene)-2-(1′H,3H-spiro[2-benzofuran-1,4′-piperidin]-1′-yl)-1,3-thiazol-4(5H)-one]"
20,8.5,"O=C1N=C(N2CCC3(CC2)OCc2ccccc23)SC1=C1CCCCC1 [Example 52, 5-cyclohexylidene-2-(1′H,3H-spiro[2-benzofuran-1,4′-piperidin]-1′-yl)-1,3-thiazol-4(5H)-one]"
21,6.9,"COC1CCCC/C1=C1/SC(N2CCC3(CC2)OCc2ncccc23)=NC1=O (stereo not drawn) [Example 164, (5E/Z)-5-(2-methoxycyclohexylidene)-2-(1′H,7H-spiro[furo[3,4-b]pyridine-5,4′-piperidin]-1′-yl)-1,3-thiazol-4(5H)-one]"
22,8.7,"O=C1N=C(N2CCC3(CC2)OCc2ccccc23)S/C1=C1/CCNC(=O)c2cc(Cl)ccc21 [Example 67, (5E/Z)-8-chloro-5-[4-oxo-2-(1′H,3H-spiro[2-benzofuran-1,4′-piperidin]-1′-yl)-1,3-thiazol-5(4H)-ylidene]-2,3,4,5-tetrahydro-1H-2-benzazepin-1-one]"

row,SMILES,pKi hV1a
1,"C/C(CO[Si](C)(C)C(C)(C)C)=C1\SC(N2CCC3(CC2)OCc2ccccc23)=NC1=O [Example 58, (5E)-5-(1-{[tert-butyl(dimethyl)silyl]oxy}propan-2-ylidene)-2-(1′H,3H-spiro[2-benzofuran-1,4′-piperidin]-1′-yl)-1,3-thiazol-4(5H)-one]",7.2
2,"C/C(CO[Si](C)(C)C(C)(C)C)=C1/SC(N2CCC3(CC2)OCc2ccccc23)=NC1=O [Example 59, (5Z)-5-(1-{[tert-butyl(dimethyl)silyl]oxy}propan-2-ylidene)-2-(1′H,3H-spiro[2-benzofuran-1,4′-piperidin]-1′-yl)-1,3-thiazol-4(5H)-one]",6.5
